# Calls of active or inactive are those of the source. The calls are words filed in the database; no cut-off is given here.
# Tests used:
# Triticum aestivum [1] = test: Toxicity against Winter Triticum aestivum (wheat) cultivar lifeng 703 assessed as abnormal ear formation at 525 g ai/h; type: organism-based; details: in vivo
# Triticum aestivum [2] = test: Toxicity against Winter Triticum aestivum (wheat) cultivar Dongmai 12 assessed as spike numbers at 225 g ai/h applied at 3-leaf stage of crop (reference value: 482.4/m'2); type: organism-based; details: in vivo, other
# Descurainia sophia [3] = test: Herbicidal activity against Descurainia sophia assessed as decrease in biomass treated at 4-5 leaf stage measured after 14 days under greenhouse trials; type: functional
# Triticum aestivum [4] = test: Toxicity against Winter Triticum aestivum (wheat) cultivar Dongmai 12 assessed as 1000-grain weight at 450 g ai/h applied at late tillering stage of crop in spring (reference value: 42.6 g); type: organism-based; details: in vivo, other
# Triticum aestivum [5] = test: Toxicity against Winter Triticum aestivum (wheat) cultivar Dongmai 12 assessed as spike numbers at 225 g ai/h applied at late tillering stage of crop in spring (reference value: 482.4/m'2); type: organism-based; details: in vivo, other
# Triticum aestivum [6] = test: Toxicity against Winter Triticum aestivum (wheat) cultivar Dongmai 12 assessed as plant height at 900 g ai/h applied at 2-tillering stage of crop in winter (reference value: 72.7 cm); type: organism-based; details: in vivo, other
# Triticum aestivum [7] = test: Toxicity against Winter Triticum aestivum (wheat) cultivar Dongmai 12 assessed as plant height at 450 g ai/h applied at 2-tillering stage of crop in winter (reference value: 72.7 cm); type: organism-based; details: in vivo, other
# Triticum aestivum [8] = test: Toxicity against Winter Triticum aestivum (wheat) cultivar Dongmai 12 assessed as spike numbers at 450 g ai/h applied at booting stage of crop (reference value: 482.4/m'2); type: organism-based; details: in vivo, other
# Triticum aestivum [9] = test: Toxicity against Winter Triticum aestivum (wheat) cultivar Dongmai 12 assessed as 1000-grain weight at 450 g ai/h applied at 2-tillering stage of crop in winter (reference value: 42.6 g); type: organism-based; details: in vivo, other
# Triticum aestivum [10] = test: Toxicity against Winter Triticum aestivum (wheat) cultivar Dongmai 12 assessed as spike numbers at 900 g ai/h applied at 2-tillering stage of crop in winter (reference value: 482.4/m'2); type: organism-based; details: in vivo, other
# Triticum aestivum [11] = test: Toxicity against Winter Triticum aestivum (wheat) cultivar Dongmai 12 assessed as 1000-grain weight at 225 g ai/h applied at 2-tillering stage of crop in winter (reference value: 42.6 g); type: organism-based; details: in vivo, other
# Triticum aestivum [12] = test: Toxicity against Winter Triticum aestivum (wheat) cultivar Dongmai 12 assessed as plant height at 900 g ai/h applied at 3-leaf stage of crop (reference value: 72.7 cm); type: organism-based; details: in vivo, other
# Triticum aestivum [13] = test: Toxicity against Winter Triticum aestivum (wheat) cultivar Dongmai 12 assessed as plant height at 450 g ai/h applied at booting stage of crop (reference value: 72.7 cm); type: organism-based; details: in vivo, other
# Capsella bursa-pastoris [14] = test: Herbicidal activity against Capsella bursa-pastoris in wheat cultivar Dongmai 12 field assessed as decrease in biomass applied during late tillering stage of winter wheatat 525 g ai/h measured after 45 days under field trials; type: functional, organism-based
# Triticum aestivum [15] = test: Toxicity against Winter Triticum aestivum (wheat) cultivar Dongmai 12 assessed as plant height at 225 g ai/h applied at 3-leaf stage of crop (reference value: 72.7 cm); type: organism-based; details: in vivo, other
# Triticum aestivum [16] = test: Toxicity against Winter Triticum aestivum (wheat) cultivar lifeng 703 assessed as grain yield at 525 g ai/h; type: organism-based; details: in vivo
# Triticum aestivum [17] = test: Toxicity against Winter Triticum aestivum (wheat) cultivar Dongmai 12 assessed as 1000-grain weight at 900 g ai/h applied at 2-tillering stage of crop in winter (reference value: 42.6 g); type: organism-based; details: in vivo, other
# Triticum aestivum [18] = test: Toxicity against Winter Triticum aestivum (wheat) cultivar Dongmai 12 assessed as 1000-grain weight at 225 g ai/h applied at 3-leaf stage of crop (reference value: 42.6 gms); type: organism-based; details: in vivo, other
# Triticum aestivum [19] = test: Toxicity against Winter Triticum aestivum (wheat) cultivar Dongmai 12 assessed as spike numbers at 225 g ai/h applied at booting stage of crop (reference value: 482.4/m'2); type: organism-based; details: in vivo, other
# Triticum aestivum [20] = test: Toxicity against Winter Triticum aestivum (wheat) cultivar Dongmai 12 assessed as spike numbers at 450 g ai/h applied at 2-tillering stage of crop in winter (reference value: 482.4/m'2); type: organism-based; details: in vivo, other
# Triticum aestivum [21] = test: Toxicity against Winter Triticum aestivum (wheat) cultivar Dongmai 12 assessed as plant height at 900 g ai/h applied at late tillering stage of crop in spring (reference value: 72.7 cm); type: organism-based; details: in vivo, other
# Triticum aestivum [22] = test: Toxicity against Winter Triticum aestivum (wheat) cultivar Dongmai 12 assessed as plant height at 225 g ai/h applied at booting stage of crop (reference value: 72.7 cm); type: organism-based; details: in vivo, other
# Capsella bursa-pastoris [23] = test: Herbicidal activity against Capsella bursa-pastoris assessed as decrease in biomass treated at 4-5 leaf stage measured after 14 days under greenhouse trials; type: functional
# Capsella bursa-pastoris [24] = test: Herbicidal activity against Capsella bursa-pastoris in wheat cultivar Dongmai 12 field assessed as decrease in plant number applied during late tillering stage of winter wheatat 525 g ai/h measured after 45 days under field trials; type: functional, organism-based
# Triticum aestivum [25] = test: Toxicity against Winter Triticum aestivum (wheat) cultivar Dongmai 12 assessed as 1000-grain weight at 225 g ai/h applied at late tillering stage of crop in spring (reference value: 42.6 g); type: organism-based; details: in vivo, other
# Descurainia sophia [26] = test: Herbicidal activity against Descurainia sophia in Wheat cultivar lifeng 703 field assessed as decrease in biomass applied during late tillering stage of winter wheat at 525 g ai/h measured after 45 days under field trials; type: functional, organism-based
compound,measurement,setting,value
"O=C(O)COc1ccc(Cl)cc1Cl [2,4-DICHLOROPHENOXYACETIC ACID]",Activity,Triticum aestivum [1],Toxic
same,Activity,Triticum aestivum [2],406.5 /m2
same,ED50,Descurainia sophia [3],23.9 gAi/ha
same,Activity,Triticum aestivum [4],42.2 g
same,Activity,Triticum aestivum [5],484.5 /m2
same,Activity,Triticum aestivum [6],71.5 cm
same,Activity,Triticum aestivum [7],71.9 cm
same,Activity,Triticum aestivum [8],474 /m2
same,Activity,Triticum aestivum [9],42.6 g
same,Activity,Triticum aestivum [10],450 /m2
same,Activity,Triticum aestivum [11],42.6 g
same,Activity,Triticum aestivum [12],61.6 cm
same,Activity,Triticum aestivum [13],71.5 cm
same,inhibition,Capsella bursa-pastoris [14],Active
same,Activity,Triticum aestivum [15],70.3 cm
same,Activity,Triticum aestivum [16],8.2 tons/ha
same,Activity,Triticum aestivum [17],42.2 g
same,Activity,Triticum aestivum [18],40.9 g
same,Activity,Triticum aestivum [19],484.5 /m2
same,Activity,Triticum aestivum [20],453 /m2
same,Activity,Triticum aestivum [21],72.3 cm
same,Activity,Triticum aestivum [22],72 cm
same,ED50,Capsella bursa-pastoris [23],75.4 gAi/ha
same,inhibition,Capsella bursa-pastoris [24],Active
same,Activity,Triticum aestivum [25],42.4 g
same,inhibition,Descurainia sophia [26],Active

# Source: ChEMBL document CHEMBL3046498, “Weed control efficacy and winter wheat safety of a novel herbicide HW02” (Crop Prot, 2013)
